Experimental data from a melting point compilation (Tetko et al.; mined from patent text by program, amines drawn as free bases though some values may be those of a salt).

SMILES	melting point
C[C@@H](O)[C@@H](OCc1ccccc1)[C@H](OCc1ccccc1)[C@@H](C)O	46 to 50 °C
Cc1c(C)c(Br)c2ncccc2c1C	180 °C
CCCCCc1ccc(-c2ncc(C#N)cn2)cc1	96 to 96.2 °C
N#Cc1ccc2ccnc(N)c2c1	183 to 186 °C
CC(=O)c1c[nH]c(Cc2ccc(O)cc2)n1	229 to 231 °C
COC(=O)[C@@H]1CCCC[C@H]1C[C@@H](O)[C@H](Cc1ccccc1)NC(=O)OC(C)(C)C	127 to 128 °C
Cc1nc(-c2ccc(-c3ccc(C(=O)O)cc3)c(C)c2)no1	229 to 231 °C
O=C(O)COCN(c1ccc(CN2CCN(Cc3ccccc3)C(=O)C2=O)cc1)c1ncccn1	85 to 90 °C
O=C=Nc1cc(OC(=O)Oc2cc(N=C=O)c(F)cc2Cl)c(Cl)cc1F	108 to 109 °C
CC(C)(C)OC(=O)NCC1(CC(=O)O)CCCCC1	109 to 111 °C
O=C(C(Cl)Cl)N1CCN(c2ccc([N+](=O)[O-])cc2)CC1	155 °C
CC1N=C(c2cccnc2)NC1=O (stereo unspecified)	238 to 241 °C
Nc1cc2[nH]c(=O)c(C(=O)O)nc2cc1F	> 300 °C
CC(=O)c1c(C)c(NC(=O)CC(C)(C)C)c(C)c2c1OCC2c1ccc(C(C)C)cc1 (stereo unspecified)	176 to 177 °C
CN1CCC(=C(c2ccn(C)c2)c2ncc[nH]2)CC1	155 °C
C#Cc1cccc(Nc2ncnc3cc(OCCOC)c(OCCOC(C)=O)cc23)c1	84 to 87 °C
CCN(CC)c1ccc2cc(-c3nc(-c4ccccc4)cs3)c(=O)oc2c1	127 to 130 °C
COC1(C(=O)Cc2ccc(-c3ccc(O)cc3)cc2)C=CC(Cl)=CC1N (stereo unspecified)	165 to 168 °C
COc1ccc(Br)c(C(=NNS(=O)(=O)c2ccccc2)N2CCN(C)CC2)c1	141 to 145 °C
COc1ccc(N2CCN(n3c(C)n[nH]c3=O)CC2)cc1	264 °C
COc1ccc(C(CI)(OC)OC)cc1	54 to 55 °C
CCCCN(CCCC)c1ccc(C=CC2=C(OC)C(=CC=CC3=C(C#N)C(=C(C#N)C#N)OC3(C)C)CC(C)(C)C2)c(OC)c1	244 to 246 °C

SMILES	melting point
COc1ccc(C(=C/C=C/C(=O)NCCCCc2cccnc2)c2ccc(OC)cc2)cc1	76 to 77 °C
O=C1CCC2C=C(c3cccnc3)C(O)=CC2N1 (stereo unspecified)	298 °C
CCCCc1nc(Cl)c(C=O)n1Cc1cccc2c1ncn2-c1ccccc1C#N	117 to 135 °C
COCC1OC(n2cnc3c(NC4CCCC4)nc(Cl)nc32)C(O)C1O (stereo unspecified)	124 to 126 °C
CC(=O)c1ncn(-c2ccccc2)n1	174 to 176 °C
Cc1ncc2c(c1OCC(=O)O)COC2(C)c1ccc(F)cc1 (stereo unspecified)	184 to 186 °C
Oc1ccc2c(c1O)OCC(c1ccccc1)C2 (stereo unspecified)	138 °C
O=C(O)CCCCN(C1CCNCC1)S(=O)(=O)c1ccccc1	115 to 120 °C
Cc1cc(CCCCCCCOc2ccc(C3=NCCO3)cc2)on1	89 to 90 °C
O=C(O)COC(c1ccc(Cl)cc1)c1ccc(Cl)cc1	108 to 110 °C
Clc1ccc2[nH]c3c(Cl)nc4ccccc4c3c2c1	250 °C
CCCCCCCC/C=C\CCCCCCCC(=O)Nc1nc(CC(=O)O)cs1	106 to 108 °C
O=C(NCC(O)c1cccc(OCc2ccc3ccccc3n2)c1)c1ccccn1 (stereo unspecified)	126 to 129 °C
COC(=O)C(C)(C)c1ccc(Cl)c([N+](=O)[O-])c1	160 to 161 °C
CCOCC1COc2cc3c(O)c(C#N)cnc3cc2O1 (stereo unspecified)	248 to 254 °C
COc1ccccc1NC=C1C(=O)N(c2ccc(C(=O)O)cc2)N=C1C	> 300 °C
CCn1cnc2c(Nc3cccc([N+](=O)[O-])c3)nc(N[C@H]3CC[C@H](O)CC3)nc21	237 to 238 °C
Nc1cc(OCc2cccc(Cl)c2)c(C(=O)NC2CN3CCC2CC3)cc1Cl (stereo unspecified)	168 to 169 °C
O=C1NCC=NN1c1cc(C(F)(F)F)cc(Cl)n1	197 to 198 °C
CCc1cc(C)c(F)c(CC)c1-c1c(O)c(C)nn(C)c1=O	193 to 195 °C
COCCN(C)c1c(S(=O)(=O)C(F)(F)F)c(C#N)nn1-c1c(Cl)cc(C(F)(F)F)cc1Cl	75 °C
COc1ccc(-c2c(SCc3ccncc3)oc3cc(OCc4ccccc4)ccc3c2=O)cc1	170 °C

SMILES	melting point
Cn1nc(Cl)c(C2=NOCCO2)c1S(N)(=O)=O	158 °C
O=c1cc(C=Cc2ccc(O)cc2)oc(-c2ccccc2)c1	198 to 201 °C
Cn1c(=O)[nH]c2cc(CN3CCN(C(c4ccccc4)c4ccccc4)CC3)ccc21	246 °C
CCOC(=O)C1(n2cc(Br)cc2C(=O)C(Cl)(Cl)Cl)CC(=O)NC1=O (stereo unspecified)	196 to 198 °C
COC(=O)c1ccc(C=C2CCn3c2nc2cc([N+](=O)[O-])ccc2c3=O)cc1	264 to 266 °C
CC(=O)N(O)C(C)c1cc2ccccc2o1 (stereo unspecified)	130 to 132 °C
CN(C)C(=O)CCC(=O)c1ccccc1	56 to 58 °C
COC(=O)C(=CNc1ccnc(-c2ccncc2)n1)C(=O)OC	209 to 211 °C
Fc1ccc(C2CCN(CCN(CCN3CCC(c4ccc(F)cc4)CC3)c3ccccc3)CC2)cc1	104 to 105 °C
CCOc1ccc2[nH]c3c([N+](=O)[O-])cc([N+](=O)[O-])c(Cl)c3c(=O)c2c1	238 to 241 °C
CC(C)(C)OC(=O)Nc1scc(C2CC2)c1C(=O)O	175 to 176 °C
O=C(NN1CCN(C(=O)Cl)C1=O)OCc1ccccc1	102 to 105 °C
CSc1c(C(=O)NN=Cc2ccc(Cl)cc2)[nH]c2ccccc12	232 to 235 °C
CCC1c2ccc(C#N)n2-c2cc(F)c(F)cc2N1S(=O)(=O)c1ccc(OC)c(C)c1 (stereo unspecified)	153 to 155 °C
Cc1oc(-c2ccccc2)nc1CCc1nc(CCl)co1	71 to 72 °C
COc1cc(OC)c2c(=O)[nH]c(-c3cc(C)c(OCCN4CCN(C)CC4)c(C)c3)cc2c1	195 to 198 °C
COCc1cc(-c2ncn(-c3cccc(Oc4ccccc4)c3)c2C)on1	83 °C
CC(C)(C)OC(=O)NCc1cccc(Cn2ccc(OCc3ccc(F)cc3)c(Br)c2=O)c1	136 to 138 °C
COc1ccc(C(CO)CNC(=O)C(N)=O)cc1OC1CCCC1 (stereo unspecified)	176 °C
O=C(O)c1cc(Cl)c(Cl)nc1Cl	164 to 168 °C

Now from value to compound:

melting point	SMILES
149 to 164 °C	O=[N+]([O-])c1cc(Cl)cc2c(Cl)ccnc12
149 to 151 °C	N#Cc1cc(Cl)ccc1Oc1cc(N2CCOCC2)c(F)cc1O
149 to 150 °C	CCOC(=O)c1cnc2c(cnn2-c2ccccc2)c1O
173 to 190 °C	COc1cc(C(=O)N2CCC(CCN3CCC(C(=O)c4nc5ccccc5n4Cc4ccc(C(=O)O)cc4)CC3)(c3ccccc3)C2)cc(OC)c1OC (stereo unspecified)
282 to 283 °C	CCCCCCCCc1ccc(NC(=O)Nc2ccc(S(N)(=O)=O)cc2)cc1
197 to 203 °C	CCCCCN1Cc2cccc(S(=O)(=O)NC(=O)Nc3nc(OC)cc(OC)n3)c2S1(=O)=O
203 to 206 °C	CCCOc1ccccc1-c1ncc(C(=O)O)c(=O)[nH]1
114 to 116 °C	O=C(CCOc1ccc(Cl)cc1)NCCCn1ccnc1
238 to 240 °C	COc1cc2c(c(N)c1OC)C(=O)C(=Cc1cc(C)c(O)c(C)c1)C2
95.8 °C	Cc1cc(-c2ccccc2)nc2c1ccn2-c1ccc(C(C)C)cc1Br
93 to 94 °C	CC1(C)Oc2cc(Br)c(Br)cc2O1
132 to 136 °C	O=[N+]([O-])c1cc(C(F)(F)F)ccc1SCc1ccccc1
124 to 125 °C	Cc1nn(-c2ccc(F)cc2)cc1C(=O)N(CC(=O)O)c1ccc(N2CCC(O)CC2)c(C#N)c1
259 to 262 °C	CC12CCC(=O)CC1CCC1C2CCC2(C)C(C(N)=O)CCC12 (stereo unspecified)
182 to 184 °C	COc1c(N2CCC(NC3CC3)C(C)C2)c(F)cc2c(=O)c(C(=O)O)cn(C3CC3)c12 (stereo unspecified)
124 to 127 °C	CC(C)c1cccc(C(C)C)c1NC(=O)N(Cc1ccccc1)CC1(c2ccccc2)CCCC1
160 to 162 °C	O=C(O)c1cccc2c1CCCC2O (stereo unspecified)
182 to 186 °C	CCOc1cc2c(Nc3cc(OC)c(Cl)cc3Cl)c(C#N)cnc2cc1OCC1CCN(C)CC1
160 to 162 °C	CCCn1cc(C(=O)NCc2ccc(Cl)cc2)c(=O)c2cc(CCl)oc21

melting point	SMILES
252 to 253 °C	NC1CN(c2c(F)c(F)c3c(=O)c(C(=O)O)cn(C4CC4)c3c2F)CC1CF (stereo unspecified)
87 to 88 °C	CCc1nc2cc(N3CCN(C)CC3)nc(CC)n2n1
119 to 123 °C	CC(C)(O)C#Cc1ccc2[nH]ccc2c1
132 °C	CN(CCNC(=O)NCCSCc1csc(NC(=N)N)n1)CCN(Cc1ccc(F)cc1)c1ccccn1
92 to 93 °C	OC(c1ccc(F)cc1)c1cc(Br)cc(Br)c1 (stereo unspecified)
89.5 to 90.5 °C	O=C(OCc1ccccc1)N1CCN(CCN2C(=O)c3ccccc3C2=O)CC1
155 to 156 °C	O=C1CC=C2CCC(=O)N12
235 to 237 °C	O=C(O)c1ccccc1N1CCN(CC(O)COc2ccc(O)cc2)CC1 (stereo unspecified)
219 to 221 °C	CCn1cc(C(=O)O)c(=O)c2cc(F)c(N3CCC(CN)C3)c(F)c21 (stereo unspecified)
176 to 178 °C	CCOC(=O)C(C#N)C(=O)c1nn(-c2ccccc2)c2c1COc1ccccc1-2 (stereo unspecified)
124 to 126 °C	CCCCc1nc2c(N)nc3ccccc3c2n1CCNC(=O)CCCCC1SCC2NC(=O)NC21 (stereo unspecified)
140 to 141 °C	CCC(C)(NC(=O)c1cc(Cl)c(N)c(C=NOC)c1)C(=O)CCl (stereo unspecified)
123 to 124 °C	COc1ccc(CNc2ncnc3c2ncn3C2OC(Cn3cc(Cc4ccccc4)nn3)C(O)C2O)cc1 (stereo unspecified)
150 to 152 °C	CCC1(CC)OC(=O)Nc2ccc(Br)cc21
69 to 71 °C	O=C(NCc1ccc(Oc2ccccc2)cc1)C1CCC1
82 to 84 °C	COc1ccc(CN2C(=O)C3(COc4cc(OC(F)(F)F)ccc43)c3ccccc32)cc1 (stereo unspecified)
271 to 273 °C	O=C(O)CN1CCN(c2ccnc(-c3nc(=O)c4ccccc4s3)c2)C1=O
151 to 153 °C	CN1CCC(CNC(=O)c2ccc(-c3[nH]nc4c3C(=O)c3c(NC(=O)NN5CCOCC5)cccc3-4)s2)C1 (stereo unspecified)
